Assay results published in patent US20220204539A1, “CD73 INHIBITORS” (BioArdis LLC, priority 2019, published 2022).
pIC50: −log10 of the molar value.

Experiments:
[1] = molecular target: T1, Cell surface CD73 of U87 MG human glioblastoma cells (Homo sapiens, UniProt P21589); assay: CD73 Cellular Assay; format: cell-based; settings: 5000 cells per well, 30 μM AMP substrate, read-out: Potency (IC50, CD73 cellular assay)
T1 construct: Cell surface CD73 catalyzes the conversion of adenosine monophosphate (AMP) to adenosine and inorganic phosphate; endogenous in cells; host or cells: U87 MG human glioblastoma cells
T1 sequence (P21589 27-549): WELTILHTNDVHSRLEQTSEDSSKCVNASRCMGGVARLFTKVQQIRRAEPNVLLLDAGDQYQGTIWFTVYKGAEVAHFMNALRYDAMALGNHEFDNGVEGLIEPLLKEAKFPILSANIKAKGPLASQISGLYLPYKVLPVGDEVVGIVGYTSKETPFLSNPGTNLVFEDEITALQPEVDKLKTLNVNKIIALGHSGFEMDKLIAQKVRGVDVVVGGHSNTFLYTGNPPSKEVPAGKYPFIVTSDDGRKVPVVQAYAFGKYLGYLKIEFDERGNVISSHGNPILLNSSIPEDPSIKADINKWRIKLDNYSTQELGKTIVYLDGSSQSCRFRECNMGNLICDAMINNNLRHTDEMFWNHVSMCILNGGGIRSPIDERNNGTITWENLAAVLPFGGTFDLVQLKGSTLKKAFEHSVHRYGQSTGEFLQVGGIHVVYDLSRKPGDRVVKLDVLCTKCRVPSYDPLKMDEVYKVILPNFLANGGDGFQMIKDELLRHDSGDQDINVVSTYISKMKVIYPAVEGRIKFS
Procedure, shortened: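 U87 MG cells (5000/well) preincubated with compound 30 min at 37 °C, 5% CO2, in HEPES-buffered saline pH 7.4 with 0.5% DMSO, then 30 μM AMP (final) for 50 min. Released phosphate in supernatant read colorimetrically at 635 nm; IC50 from four-parameter logistic fit versus cells-plus-substrate and cells-only controls.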

[2] = molecular target: T2, Recombinant Human 5′-Nucleotidase (CD73) (Homo sapiens, UniProt P21589); assay: CD73 Enzyme Assay; format: biochemical; settings: human CD73 0.5 nM, AMP 30 μM, PiColorLock phosphate detection; read-out: Potency (IC50, CD73 enzyme assay)
T2 construct: CHO derived CD73 (Trp27-Lys547), with a C-terminal 6-His tag; 6-His (C); purchased R&D 5795-EN; host or cells: CHO
T2 sequence (P21589 27-547): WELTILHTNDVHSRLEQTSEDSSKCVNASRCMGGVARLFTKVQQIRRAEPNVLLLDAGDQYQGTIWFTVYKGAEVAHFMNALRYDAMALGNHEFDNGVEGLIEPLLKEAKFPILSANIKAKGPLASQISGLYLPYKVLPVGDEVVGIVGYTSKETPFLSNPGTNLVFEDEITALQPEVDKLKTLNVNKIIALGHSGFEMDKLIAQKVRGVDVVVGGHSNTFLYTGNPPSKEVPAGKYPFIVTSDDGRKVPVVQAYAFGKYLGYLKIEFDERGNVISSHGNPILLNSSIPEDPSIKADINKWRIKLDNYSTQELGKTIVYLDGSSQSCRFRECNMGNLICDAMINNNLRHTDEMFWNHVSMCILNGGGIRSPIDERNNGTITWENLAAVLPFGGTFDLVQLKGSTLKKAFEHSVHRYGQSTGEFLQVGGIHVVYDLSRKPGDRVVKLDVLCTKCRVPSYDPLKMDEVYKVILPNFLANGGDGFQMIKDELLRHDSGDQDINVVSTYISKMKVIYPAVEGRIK
Procedure, shortened: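 Human CD73 (CHO-derived Trp27-Lys547, His-tagged; 0.5 nM final) was preincubated with compound for 15 min at 25° C. in Tris pH 7.5 buffer with MgCl2. It then reacted with 30 μM AMP for 20 min at 37° C., and released phosphate was read by malachite green absorbance at 635 nm. IC50 came from four-parameter fits against enzyme and no-enzyme controls.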

Row | pIC50 [1] | pIC50 [2] | SMILES
1 | > 9.00 | > 8.00 | O=P(O)(O)CP(=O)(O)OC[C@H]1O[C@@H](c2cnc3c(NC4CCC(F)(F)C4)nc(Cl)nn23)[C@H](O)[C@@H]1O (stereo partly drawn) [Compound 49, (((((2R,3S,4R,1S)-5-(2-chloro-4-((3,3-difluorocyclopentyl)amino)imidazo[2,1-f][1,2,4]triazin-7-yl)-3,4-dihydroxytetrahydrofuran-2-yl)methoxy)(hydroxy)phosphoryl)methyl)phosphonic Acid]
2 | > 9.00 | > 8.00 | C[C@H](Nc1nc(Cl)nn2c([C@@H]3O[C@H](COP(=O)(O)CP(=O)(O)O)[C@@H](O)[C@H]3O)cnc12)c1ccc(F)c(F)c1 [Compound 52, (((((2R,3S,4R,5S)-5-(2-chloro-4-(((S)-1-(3,4-difluorophenyl)ethyl)amino)imidazo[2,1-f][1,2,4]triazin-7-yl)-3,4-dihydroxytetrahydrofuran-2-yl)methoxy)(hydroxy)phosphoryl)methyl) phosphonic acid]
3 | > 9.00 | > 8.00 | C[C@H](Nc1nc(Cl)nn2c([C@@H]3O[C@H](COP(=O)(O)CP(=O)(O)O)[C@@H](O)[C@H]3O)cnc12)c1ccc(Cl)c(Cl)c1 [Compound 53, (((((2R,3S,4R,5S)-5-(2-chloro-4-(((S)-1-(3,4-dichlorophenyl)ethyl)amino)imidazo[2,1-f][1,2,4]triazin-7-yl)-3,4-dihydroxytetrahydrofuran-2-yl)methoxy)(hydroxy)phosphoryl)methyl)phosphonic acid]
4 | > 9.00 | > 8.00 | C[C@H](Nc1nc(Cl)nn2c([C@@H]3O[C@H](COP(=O)(O)CP(=O)(O)O)[C@@H](O)[C@H]3O)cnc12)c1ccc(Cl)cc1 [Compound 54, (((((2R,3S,4R,1S)-5-(2-chloro-4-(((S)-1-(4-chlorophenyl)ethyl)amino)imidazo[2,1-f][1,2,4]triazin-7-yl)-3,4-dihydroxytetrahydrofuran-2-yl)methoxy)(hydroxy)phosphoryl)methyl)phosphonic Acid]
5 | > 9.00 | > 8.00 | O=P(O)(O)CP(=O)(O)OC[C@H]1O[C@@H](c2cnc3c(N[C@H]4CCc5ccccc54)nc(Cl)nn23)[C@H](O)[C@@H]1O [Compound 63, [({[(2R,3S,4R,5S)-5-{2-chloro-4-[(1S)-2,3-dihydro-1H-inden-1-ylamino]imidazo[2,1-f][1,2,4]triazin-7-yl}-3,4-dihydroxyoxolan-2-yl]methoxy}(hydroxy)phosphoryl)methyl] phosphonic acid]
6 | 7.00 to 8.00 | 7.00 to 8.00 | C[C@H](Nc1nc(Cl)nn2c(C3O[C@H](COP(=O)(O)CP(=O)(O)O)[C@@H](O)[C@@H]3F)cnc12)c1ccccc1F (stereo partly drawn) [Compound 74, (((((2R,3R,4S)-5-(2-chloro-4-(((S)-1-(2-fluorophenyl)ethyl)amino)imidazo[2,1-f][1,2,4]triazin-7-yl)-4-fluoro-3-hydroxytetrahydrofuran-2-yl)methoxy)(hydroxy)phosphoryl)methyl)phosphonic Acid]

Second part, the compound before the results:

Row | SMILES | pIC50 [1] | pIC50 [2]
7 | O=P(O)(O)CP(=O)(O)OC[C@H]1O[C@@H](c2cnc3c(NC4CC5CCC4C5)nc(Cl)nn23)[C@H](O)[C@@H]1O (stereo partly drawn) [Compound 50, [({[(2R,3S,4R,5S)-5-(4-{bicyclo[2.2.1]heptan-2-ylamino}-2-chloroimidazo[2,1-f][1,2,4]triazin-7-yl)-3,4-dihydroxyoxolan-2-yl]methoxy}(hydroxy)phosphoryl)methyl]phosphonic acid] | > 9.00 | > 8.00
8 | O=P(O)(O)CP(=O)(O)OC[C@H]1O[C@@H](c2cnc3c(N4CCC[C@H]4c4ccccc4F)nc(Cl)nn23)[C@H](O)[C@@H]1O [Compound 55, (((((2R,3S,4R,1S)-5-(2-chloro-4-((S)-2-(2-fluorophenyl)pyrrolidin-1-yl)imidazo[2,1-f][1,2,4]triazin-7-yl)-3,4-dihydroxytetrahydrofuran-2-yl)methoxy)(hydroxy)phosphoryl)methyl)phosphonic Acid] | > 9.00 | > 8.00
9 | O=P(O)(O)CP(=O)(O)OC[C@H]1O[C@@H](c2cnc3c(N4CCCC[C@H]4c4ccccc4)nc(Cl)nn23)[C@H](O)[C@@H]1O [Compound 56, (((((2R,3S,4R,1S)-5-(2-chloro-4-((S)-2-phenylpiperidin-1-yl)imidazo[2,1-f][1,2,4]triazin-7-yl)-3,4-dihydroxytetrahydrofuran-2-yl)methoxy)(hydroxy)phosphoryl)methyl)phosphonic Acid] | > 9.00 | > 8.00
10 | N#Cc1nc(NC2CCCC2)c2ncc([C@@H]3O[C@H](COP(=O)(O)CP(=O)(O)O)[C@@H](O)[C@H]3O)n2n1 [Compound 62, (((((2R,3S,4R,5S)-5-(2-cyano-4-(cyclopentylamino)imidazo[2,1-f][1,2,4]triazin-7-yl)-3,4-dihydroxytetrahydrofuran-2-yl)methoxy)(hydroxy)phosphoryl)methyl)phosphonic Acid] | > 9.00 | > 8.00
11 | O=P(O)(O)CP(=O)(O)OC[C@H]1O[C@@H](c2cnc3c(N4CCC[C@H]4c4ccccc4)nc(Cl)nn23)[C@H](O)[C@@H]1O [Compound 64, (((((2R,3S,4R,1S)-5-(2-chloro-4-((S)-2-phenylpyrrolidin-1-yl)imidazo[2,1-f][1,2,4]triazin-7-yl)-3,4-dihydroxytetrahydrofuran-2-yl)methoxy)(hydroxy)phosphoryl)methyl)phosphonic Acid] | > 9.00 | > 8.00
12 | NC(=O)c1nc(NC2CCCC2)c2ncc([C@@H]3O[C@H](COP(=O)(O)CP(=O)(O)O)[C@@H](O)[C@H]3O)n2n1 [Compound 66, (((((2R,3S,4R,5S)-5-(2-carbamoyl-4-(cyclopentylamino)imidazo[2,1-f][1,2,4]triazin-7-yl)-3,4-dihydroxytetrahydrofuran-2-yl)methoxy)(hydroxy)phosphoryl)methyl)phosphonic Acid] | > 9.00 | > 8.00
13 | O=P(O)(O)CP(=O)(O)OC[C@H]1O[C@@H](c2cnc3c(N4CC5CCCC5C4)nc(Cl)nn23)[C@@H](F)[C@@H]1O (stereo partly drawn) [Compound 72, (((((2R,3R,4S,5S)-5-(2-chloro-4-(hexahydrocyclopenta[c]pyrrol-2(1H)-yl)imidazo[2,1-f][1,2,4]triazin-7-yl)-4-fluoro-3-hydroxytetrahydrofuran-2-yl)methoxy)(hydroxy)phosphoryl)methyl) phosphonic Acid] | 8.00 to 9.00 | > 8.00
14 | O=P(O)(O)CP(=O)(O)OC[C@H]1OC(c2cnc3c(N4CCCC4)nc(Cl)nn23)[C@@H](F)[C@@H]1O (stereo partly drawn) [Compound 73, (((((2R,3R,4S)-5-(2-chloro-4-(pyrrolidin-1-yl)imidazo[2,1-f][1,2,4]triazin-7-yl)-4-fluoro-3-hydroxytetrahydrofuran-2-yl)methoxy)(hydroxy)phosphoryl)methyl)phosphonic Acid] | 8.00 to 9.00 | 7.00 to 8.00
15 | O=P(O)(O)CP(=O)(O)OC[C@H]1O[C@@H](c2cnc3c(N4CCC(F)(F)C4)nc(Cl)nn23)[C@@H](F)[C@@H]1O [Compound 75, (((((2R,3R,4S,5S)-5-(2-chloro-4-(3,3-difluoropyrrolidin-1-yl)imidazo[2,1-f][1,2,4]triazin-7-yl)-4-fluoro-3-hydroxytetrahydrofuran-2-yl)methoxy)(hydroxy)phosphoryl)methyl)phosphonic Acid] | 8.00 to 9.00 | 7.00 to 8.00
